Where “and” joins values, the source holds several entries; their conditions need not be identical. Identical values can stand only once. Entries after “also recorded” stand apart in the source; their conditions may differ. Like-named read-outs stand apart in the source and are kept apart here.
Tests used:
[1] = system: autoluminescent M. tuberculosis H37Rv (AlRv); type: in vivo, Mycobacterium tuberculosis
[2] = system: autoluminescent M. tuberculosis H37Rv (AlRv); type: in vivo, Mycobacterium tuberculosis; remark: listed apart in the source
AlRv = experiment: Published inhalation administration method using a syringe-like device in mice infected with AlRv; type: in vivo, Mycobacterium tuberculosis; settings: unpublished data
Source text: To date, four primary research reports, encompassing three inhalation administration models, have explored the detection of anti-TB drug efficacy through airway administration ([Garcia-Contreras et al., 2007]; [Garcia-Contreras et al., 2010]; [Gonzalez-Juarrero et al., 2012]; [Verma et al., 2013]). Among these studies, only two have employed murine models for their investigations. Supplementary Table S1 presents a comprehensive comparison of the advantages and disadvantages of each report relative to our study. Compared to these existing inhalation administration model, our innovative method achieves several improvements. Firstly, it is cost-effective and user-friendly, employing mice instead of larger animals. Secondly, it eliminates the need for anesthesia in mice during administration, simplifying the instrument operation. We also endeavored to utilize a published inhalation administration method using a syringe-like device in mice infected with AlRv. However, we encountered significant challenges in administering drugs daily due to the development of swollen throats in the mice ([Gonzalez-Juarrero et al., 2012]). […] Thirdly, the results obtained are relatively objective and repeatable, thereby minimizing the influence of human factor. Fourthly, the same treatment group, consisting of six mice, is administrated daily and simultaneously. […]

M. tuberculosis = settings: stated without method or reference; cited from earlier work
[3] = parameters: method as in Grewal et al., 2018; Grosset et al., 1992; Lyons et al., 2013; settings: mice, oral administration; ref Grewal et al., 2018; Grosset et al., 1992; Lyons et al., 2013; cited from earlier work
in vivo [4] = settings: mouse, inhaled or intranasal
[5] = Pharmacokinetics in lung via inhalation; settings: for duration lung concentration above in vitro MIC against M. tuberculosis: lung tissue, inhalation
[6] = Pharmacokinetics in plasma via inhalation; settings: for duration plasma concentration exceeded in vitro MIC against M. tuberculosis / peak concentration in plasma / AUC(0-t) / AUC(0-inf) / Tmax: mice
in vivo [7] = settings: mouse, inhaled or intranasal; remark: listed apart in the source
[8] = […], RIF 2, INH 2, EMB 10 mg/mL, lungs D18
[9] = mice, RIF 2, INH 0.5, EMB 10 mg/mL
[10] = lung, mice, single inhalation, RIF 2, INH 0.5, EMB 10 mg/mL
[11] = mouse, lung, inhaled or intranasal, AUC0-t, mice, single inhalation 25 min, RIF 2, INH 0.5, EMB 10 mg/mL
[12] = mouse, lung, inhaled or intranasal, Tmax, mice, single inhalation 25 min, RIF 2, INH 0.5, EMB 10 mg/mL
[13] = mouse, lung, inhaled or intranasal, time of peak concentration in lung post-administration, mice, single inhalation, RIF 2, INH 0.5, EMB 10 mg/mL
[14] = inhalation, RIF 2, INH 0.5, EMB 10 mg/mL
[15] = single inhalation, RIF 2, INH 0.5, EMB 10 mg/mL
[16] = mouse, inhaled or intranasal, AUC0-t in plasma, inhalation, t = 4 h for INH and 24 h for RIF and EMB
[17] = mouse, inhaled or intranasal, AUC0-t, single inhalation 25 min, RIF 2, INH 0.5, EMB 10 mg/mL, t = 4 h for INH, 24 h for RIF and EMB
[18] = mouse, inhaled or intranasal, AUC0-∞ in plasma, inhalation
[19] = mouse, inhaled or intranasal, AUC0-∞, single inhalation 25 min, RIF 2, INH 0.5, EMB 10 mg/mL
[20] = mouse, inhaled or intranasal, time of peak concentration in plasma post-administration, single inhalation, RIF 2, INH 0.5, EMB 10 mg/mL, first sampling point 5 min

SMILES	lung CFUs compared with BT group [1, 8]	lung RLUs compared with BT group [1, 8]	log10CFUs/lung difference to solvent group ([2]; in vivo)	log10RLUs/lung difference to solvent group ([2]; in vivo)	lowest inhaled concentration showing anti-M. tuberculosis activity in vivo ([2]; in vivo) [mg/mL]	lung CFUs compared with BT group ([2]; in vivo)	lung RLUs compared with BT group ([2]; in vivo)	lung RLUs compared with solvent group ([2]; in vivo)	in vitro minimum inhibitory concentration (MIC) (M. tuberculosis) [µg/mL]	time of highest plasma concentration post-administration [3] [h]	duration lung concentration above in vitro MIC against M. tuberculosis [5, 9]	peak concentration in lung [5, 10] [µg/g]	AUC(0-t) [5, 11] [ng·h/mL]	Tmax [5, 12] [min]	Tmax [5, 13] [min]	duration plasma concentration exceeded in vitro MIC against M. tuberculosis [6, 14]	peak concentration in plasma [6, 15]	AUC(0-t) [6, 16] [ng·h/mL]	AUC(0-t) [6, 17] [ng·h/mL]	AUC(0-inf) [6, 18] [ng·h/mL]	further results
NNC(=O)c1ccncc1 [INH, isoniazid]	lower	slightly lower	exceeding 1.5 log10CFUs/lung	exceeding 1.5 log10RLUs/lung	0.5	lower	comparable	similar	0.13	0.25	~0.5 h	2.52 ± 0.81	337	15	≤ 15	~3 h	2.66 ± 0.29 µg/mL	1570	1570	1790	colonies on plates of lung suspension ([2]; […], only a fraction of the lung suspension plated): no colonies were observed; RLUs compared with untreated control and the same mice the day before administration (AlRv): reduced RLUs; Tmax (in vivo [4]): 4.8 min; concentration in the lungs 30 min post-administration ([5]; lung, mice, inhalation 0.5 mg/mL, 30 min post-administration): nearly undetectable; also recorded: near-zero; AUC(0-t) ([5]; mouse, lung, inhaled or intranasal, 0.5 mg/mL, AUC0-t in the lungs, mice, inhalation 0.5 mg/mL): 340 ng·h/mL; AUC(0-inf) [6, 19]: 1790 ng·h/mL; Tmax [6, 20]: ≤ 5 min
CO[C@H]1/C=C/O[C@@]2(C)Oc3c(C)c(O)c4c(O)c(c(/C=N/N5CCN(C)CC5)c(O)c4c3C2=O)NC(=O)/C(C)=C\C=C\[C@H](C)[C@H](O)[C@@H](C)[C@@H](O)[C@@H](C)[C@H](OC(C)=O)[C@@H]1C [RIF, rifampicin]			exceeding 1.5 log10CFUs/lung	exceeding 1.5 log10RLUs/lung	0.5			comparable	0.06		approximately 24 h					approximately 24 h					lung CFUs compared with BT group ([1]; in vivo): higher; bactericidal activity by lung suspension RLU and CFU ([2]; in vivo): failed to demonstrate bactericidal activity; lung CFUs compared with solvent group ([2]; in vivo): slightly significantly lower; also recorded: approximately comparable; AUC(0-t) (in vivo [4]; AUC0-t in plasma): 19000 ng·h/mL; AUC(0-inf) (in vivo [4]; AUC0-∞ in plasma): 21000 ng·h/mL; Tmax (in vivo [4]; Tmax): 4.8 min; Tmax (in vivo [4]; time of peak concentration in plasma post-administration): 5 min; Tmax (in vivo [7]; Tmax): 4.8 min; Tmax (in vivo [7]; time of peak concentration in lung post-administration): 5 min
CC[C@@H](CO)NCCN[C@@H](CC)CO [EMB, ethambutol]	almost similar	nearly identical	exceeding 1.5 log10CFUs/lung		0.625	nearly identical	equivalent	less significant differences	2.00	1.33	~10 h	10.94 ± 1.63	47300	4.8	≤ 5	~14 h	28.64 ± 16.80 µg/mL and 28.64 ± 16.8 µg/mL	103000	103000	103000	live RLUs compared with solvent group ([2]; in vivo): significantly lower; lung CFUs compared with solvent control ([2]; in vivo): significantly reduced; half-life ([5]; mouse, lung, inhaled or intranasal): 274 min; AUC(0-inf) ([5]; mouse, lung, inhaled or intranasal, AUC0-∞, mice, single inhalation 25 min, RIF 2, INH 0.5, EMB 10 mg/mL): 48700 ng·h/mL; half-life ([6]; mouse, inhaled or intranasal): 170 min; AUC(0-inf) [6, 19]: 103000 ng·h/mL; Tmax ([6]; mouse, inhaled or intranasal, Tmax, single inhalation 25 min, RIF 2, INH 0.5, EMB 10 mg/mL): 4.8 min; Tmax [6, 20]: ≤ 5 min
